Reference: paper PMC6199744, “Development of Chemical Proteomics for the Folateome and Analysis of the Kinetoplastid Folateome” (ACS Infectious Diseases, 2018)
Read-outs that look alike come from different tables or passages of the source.

Test system: T. brucei lysate proteins
Assay type: binding, Trypanosoma brucei
Details: vehicle control = 1

## NCCOCCOCC(=O)Nc1nc2ncc(CNc3ccc(C(=O)NC(CCC(=O)O)C(=O)O)cc3)nc2c(=O)[nH]1 (stereo not shown) [compound 6]
Protein TB427.06.2550 RNA-BINDING PROTEIN, PUTATIVE
  fold change: 0.94
Protein TB427.06.3500 ENDOSOMAL T[…] RME-8, PUTATIVE
  fold change: 0.83
Protein TB427.06.3630 SPHINGOSINE 1-PHOSPHATE LYASE, PUTATIVE
  fold change: 0.95
Protein TB427.06.3650 ADP-RI[…], PUTATIVE
  fold change: 0.98
Protein TB427.06.3670 PAR[…] COMPONENT, PUTATIVE
  fold change: 0.88
Protein TB427.06.4890 S-ADENOSYL[…], PUTATIVE
  fold change: 1.19
Protein TB427.06.700 ALANYL-TRNA SYNTHETASE, PUTATIVE
  fold change: 0.97
Protein TB427.07.1300 PROTEIN DISULFIDE ISOMERASE, PUTATIVE
  fold change vs vehicle control: 1.37
Protein TB427.07.2340 40S RIBOSOMAL PROTEIN S15, PUTATIVE
  fold change: 0.89
Protein TB427.07.2770 HY[…], CONSERVED
  fold change: 0.86
Protein TB427.07.3530 HY[…], CONSERVED
  fold change: 0.98
Protein TB427.07.3980 IMMU[…], PUTATIVE
  fold change: 0.79
Protein TB427.07.4170 FATTY ACID ELONGASE, PUTATIVE
  fold change vs vehicle control: 0.97
Protein TB427.07.4180 FATTY ACID ELONGASE, PUTATIVE
  fold change: 0.95
Protein TB427.07.4970 GLUTAMINE SYNTHETASE, PUTATIVE
  fold change: 0.85
Protein TB427.07.7070 HY[…], CONSERVED
  fold change: 0.92
Protein TB427.07.7500 THYMINE-7-HYDROXYLASE, PUTATIVE
  fold change vs vehicle control: 0.35
Protein TB427.08.2060 HY[…], CONSERVED
  fold change: 0.87
Protein TB427.08.2080 HY[…], CONSERVED
  fold change: 1.19
Protein TB427.08.3490 HY[…], CONSERVED
  fold change: 0.98
Protein TB427.08.3530 GLYCEROL-3-PHOSPHATE DEH[…]+], GLYCOSOMAL
  fold change: 1
Protein TB427.08.3660 PROTEIN TRANSPORT PROTEIN SEC23
  fold change vs vehicle control: 0.99
Protein TB427.08.3750 NUCLEOLAR PROTEIN, PUTATIVE
  fold change vs vehicle control: 0.96
Protein TB427.08.3870 HY[…], CONSERVED
  fold change: 0.99
Protein TB427.08.4210 HY[…], CONSERVED
  fold change: 1.19
Protein TB427.08.650 CATION-TR[…], PUTATIVE
  fold change: 0.94
Protein TB427.10.10020 HY[…], CONSERVED
  fold change: 0.97
Protein TB427.10.10350 PROTEIN KINASE, PUTATIVE
  fold change: 0.86
Protein TB427.10.10360 MICROTUBULE-[…], PUTATIVE
  fold change: 0.85
Protein TB427.10.10610 PROTEIN TYROSINE PHOSPHATASE, PUTATIVE
  fold change vs vehicle control: 1.7
Protein TB427.10.1100 60S RIBOSOMAL PROTEIN L9, PUTATIVE
  fold change vs vehicle control: 1.14
Protein TB427.10.12510 P-TYPE H+-ATPASE, PUTATIVE
  fold change vs vehicle control: 1.28
Protein TB427.10.12710 HEAT SHOCK PROTEIN, PUTATIVE
  fold change: 1.53
Protein TB427.10.14470 INTR[…] PROTEIN IFT140, PUTATIVE
  fold change vs vehicle control: 1.46
Protein TB427.10.1450 HY[…], CONSERVED
  fold change: 0.97
Protein TB427.10.14550 ATP-DEPENDENT DEAD/H RNA HELICASE, PUTATIVE
  fold change vs vehicle control: 1.1
Protein TB427.10.14930 HY[…], CONSERVED
  fold change vs vehicle control: 0.95
Protein TB427.10.14950 RNA BINDING PROTEIN, PUTATIVE
  fold change vs vehicle control: 0.98
Protein TB427.10.14990 INTR[…] PROTEIN IFT80/CHE2, PUTATIVE
  fold change: 1.1
Protein TB427.10.15720 […]-ATP-ASE SUBUNIT 9
  fold change: 0.84
Protein TB427.10.2020 HEXOKINASE
  fold change: 1.29
Protein TB427.10.2290 CHAPERONE PROTEIN DNAJ, PUTATIVE
  fold change: 0.86
Protein TB427.10.2440 METACASPASE MCA4
  fold change: 0.89
Protein TB427.10.3470 HY[…], CONSERVED
  fold change vs vehicle control: 1.1
Protein TB427.10.5810 HY[…], CONSERVED
  fold change vs vehicle control: 1.81
Protein TB427.10.6150 […]/BEIGE PROTEIN, PUTATIVE
  fold change: 0.67
Protein TB427.10.6310 MAJOR VAULT PROTEIN, PUTATIVE
  fold change: 0.93
Protein TB427.10.730 ATP SYNTHASE, PUTATIVE
  fold change: 0.83
Protein TB427.10.7620 MIT[…]-DEPENDENT ZINC METALLOPEPTIDASE, PUTATIVE
  fold change vs vehicle control: 0.98
Protein TB427.10.8230 PROTEIN DISULFIDE ISOMERASE
  fold change vs vehicle control: 1.84
Protein TB427.10.8910 HY[…], CONSERVED
  fold change: 0.91
Protein TB927.10.13290 ETHANOLAMINE PHOSPHOTRANSFERASE (EPT)
  fold change vs vehicle control: 1.14
Protein TB927.10.13780 GLYCOGEN SYNTHASE KINASE 3
  fold change vs vehicle control: 0.99
Protein TB927.10.14980 INTR[…] PROTEIN IFT52, PUTATIVE
  fold change vs vehicle control: 1.23
Protein TB927.10.2640 INTR[…] PROTEIN IFT81, PUTATIVE
  fold change vs vehicle control: 0.98
Protein TB927.10.2890 ENOLASE
  fold change vs vehicle control: 1.58
Protein TB927.10.2980 […]-ATPASE SUBUNIT 11
  fold change: 0.89
Protein TB927.10.3990 DHH1
  fold change: 1.1
Protein TB927.10.4180 TFIIF-[…] PHOSPHATASE, PUTATIVE
  fold change: 1
Protein TB927.10.4570 […] 2
  fold change vs vehicle control: 1.74
Protein TB927.10.5370 40S RIBOSOMAL PROTEIN S10, PUTATIVE
  fold change: 0.89
Protein TB927.10.5500 HY[…], CONSERVED
  fold change: 0.92
Protein TB927.10.560 40S RIBOSOMAL PROTEINS S11, PUTATIVE
  fold change vs vehicle control: 1.25
Protein TB927.10.6050 CLATHRIN HEAVY CHAIN
  fold change: 0.85
Protein TB927.10.7090 A[…]
  fold change: 1.37
Protein TB927.10.8940 HY[…], CONSERVED
  fold change vs vehicle control: 0.88
Protein TB927.2.2770 HY[…] TB927 2 2770
  fold change: 1.1
Protein TB927.2.3800 MRNA […], PUTATIVE
  fold change: 0.69
Protein TB927.3.1240 PROTEIN PHOSPHATASE 2A, PUTATIVE
  fold change: 0.98
Protein TB927.3.2960 INOSINE-ADENOSINE-GUANOSINE-[…]
  fold change vs vehicle control: 1.36
Protein TB927.3.3270 ATP-DEPENDENT PHOSPHOFRUCTOKINASE
  fold change: 0.93
Protein TB927.3.3450 ADP-RI[…]-LIKE PROTEIN 3A, PUTATIVE
  fold change vs vehicle control: 2.16
Protein TB927.3.3490 HIGH MOBILITY GROUP PROTEIN, PUTATIVE
  fold change vs vehicle control: 1.55
Protein TB927.3.3780 TRYPAREDOXIN
  fold change: 0.94
Protein TB927.3.5120 HY[…], CONSERVED (Ankyrin repeats (3 copies), putative)
  fold change vs vehicle control: 1.38
Protein TB927.3.740 HY[…], CONSERVED
  fold change vs vehicle control: 0.97
Protein TB927.4.2740 HY[…], CONSERVED (p25-alpha, putative)
  fold change vs vehicle control: 1.55
Protein TB927.4.3590 T[…] 1-BETA, PUTATIVE
  fold change: 1.46
Protein TB927.4.3820 HY[…], CONSERVED
  fold change vs vehicle control: 0.99
Protein TB927.4.5310 SERINE/THREONINE-PROTEIN KINASE A, PUTATIVE
  fold change: 0.95
Protein TB927.5.1630 HY[…], CONSERVED
  fold change: 0.86
Protein TB927.5.3220 SIGNAL PEPTIDASE TYPE I, PUTATIVE
  fold change: 0.87
Protein TB927.5.4440 DYNEIN LIGHT CHAIN, PUTATIVE
  fold change vs vehicle control: 0.98
Protein TB927.6.2200 HY[…], CONSERVED
  fold change: 1
Protein TB927.7.1750 60S RIBOSOMAL PROTEIN L7, PUTATIVE
  fold change vs vehicle control: 1.31
Protein TB927.7.2140 HY[…]
  fold change: 0.83
Protein TB927.7.4470 HY[…], CONSERVED
  fold change vs vehicle control: 1.18
Protein TB927.7.7430 ATP SYNTHASE ALPHA CHAIN, MIT[…]
  fold change vs vehicle control: 1.18
Protein TB927.8.1510 ATP-DEPENDENT DEAD/H RNA HELICASE, PUTATIVE
  fold change: 0.96
Protein TB927.8.1990 PEROXIDOXIN
  fold change: 0.97
Protein TB927.8.4770 SMALL GTP-BINDING PROTEIN RAB18
  fold change: 0.96
